According to PMC9186362, “Design and biological evaluation of substituted 5,7-dihydro-6H-indolo[2,3-c]quinolin-6-one as novel selective Haspin inhibitors” (Journal of Enzyme Inhibition and Medicinal Chemistry, 2022):
pEC50, pIC50: −log10 of the molar value. Each block holds one compound with its values, some of them ahead of it.

Tests used:
[1] = system: U-2 OS, HCT116, MDA-MB231, SH-SY5Y and RPE-1 cell lines; experiment: Cell viability primary screen at 25 μM; format: cell-based, human; conditions: 48 h; for Effect on cell viability, primary screen: all tested cell lines
Method: (§1) HCT116 cells were cultured in McCoy’s medium. SH-SY5Y, MDA-MB231 and U-2 OS cells were cultured in Dulbecco's modified Eagle's medium (DMEM) and hTERT RPE-1 cells in DMEM:F12 medium. All media were supplemented with 10% foetal calf serum and cells were cultured at 37 °C in a 5% CO2 humidified atmosphere.
(§2) Cell viability was then assessed using the CellTiter96 AQueous cell proliferation assay from Promega according to the manufacturer’s instructions. Each experiment was done in triplicate and EC50 were determined from the dose-response curves according to the signal given by the control (0.1% DMSO) set at 100% viability using Prism GraphPad software.

HsGSK3β = HsGSK3β (Homo sapiens, UniProt P49841); experiment: ADP-Glo kinase assay; format: biochemical, Homo sapiens (Hs); conditions: mean n = 2, % of maximum activity of DMSO control, read-out: % Residual activity at 1 μM GSK3β
Method: (§3) Kinase activities were determined using the ADP-Glo methodology (ADP-Glo Kinase Assay; Promega) according to the assay described by Nguyen et al.[32] except for MmCLK1. The later was assayed in the following buffer: 10 mM MgCl2, 1 mM EGTA, 1 mM DTT, 25 mM Tris-HCl pH 7.5, 50 µg/ml heparin, 0.15 mg/ml BSA, with 0.027 µg/µl of the following peptide: GRSRSRSRSRSR as substrate.

HsPIM1 = HsPIM1 (Homo sapiens, UniProt P11309); experiment: ADP-Glo kinase assay; format: biochemical, Homo sapiens (Hs); conditions: mean n = 2, % of maximum activity of DMSO control, read-out: % Residual activity at 1 μM PIM1
Method: as §3

HsHaspin = target: T1, HsHaspin (Homo sapiens, UniProt Q8TF76); experiment: ADP-Glo kinase assay; format: biochemical, Homo sapiens (Hs); conditions: for remaining activity at 1 µM: mean n = 2, % of maximum activity of DMSO control, read-out: % Residual activity at 1 μM Haspin; for pIC50: dose-response curve, each point in duplicate, read-out: Kinase inhibition (IC50) Haspin
T1 sequence (Q8TF76 1-798): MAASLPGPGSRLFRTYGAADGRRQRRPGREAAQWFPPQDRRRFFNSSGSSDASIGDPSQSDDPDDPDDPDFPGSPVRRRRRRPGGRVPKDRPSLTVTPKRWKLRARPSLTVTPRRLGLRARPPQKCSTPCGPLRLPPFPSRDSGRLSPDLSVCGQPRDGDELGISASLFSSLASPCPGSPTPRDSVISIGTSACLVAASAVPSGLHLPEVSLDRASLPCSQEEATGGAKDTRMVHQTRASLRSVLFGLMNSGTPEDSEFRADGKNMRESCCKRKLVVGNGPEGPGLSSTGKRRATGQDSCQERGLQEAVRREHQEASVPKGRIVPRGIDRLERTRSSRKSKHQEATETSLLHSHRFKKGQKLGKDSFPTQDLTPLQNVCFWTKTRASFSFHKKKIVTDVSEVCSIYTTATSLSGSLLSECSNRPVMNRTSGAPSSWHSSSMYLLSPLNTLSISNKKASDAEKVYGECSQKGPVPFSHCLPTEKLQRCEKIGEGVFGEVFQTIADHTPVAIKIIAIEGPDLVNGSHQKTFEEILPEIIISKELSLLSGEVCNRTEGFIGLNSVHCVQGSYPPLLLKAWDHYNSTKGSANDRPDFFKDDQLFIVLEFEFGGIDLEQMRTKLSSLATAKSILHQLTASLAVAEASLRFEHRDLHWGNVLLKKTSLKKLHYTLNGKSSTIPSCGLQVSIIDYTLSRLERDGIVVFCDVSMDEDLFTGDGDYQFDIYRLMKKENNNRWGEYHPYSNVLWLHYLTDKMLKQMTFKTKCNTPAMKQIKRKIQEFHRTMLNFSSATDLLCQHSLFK
Method: as §3

HsCdk9/Cyc E = HsCdk9/Cyc E (Homo sapiens, UniProt P50750); experiment: ADP-Glo kinase assay; format: biochemical, Homo sapiens (Hs); conditions: mean n = 2, % of maximum activity of DMSO control, read-out: % Residual activity at 1 μM CDK9
Method: as §3

HsCdk2/Cyc A = HsCdk2/Cyc A (Homo sapiens, UniProt P24941); experiment: ADP-Glo kinase assay; format: biochemical, Homo sapiens (Hs); conditions: mean n = 2, % of maximum activity of DMSO control, read-out: % Residual activity at 1 μM CDK2
Method: as §3

HsCdk5/p25 = HsCdk5/p25 (Homo sapiens, UniProt Q00535); experiment: ADP-Glo kinase assay; format: biochemical, Homo sapiens (Hs); conditions: mean n = 2, % of maximum activity of DMSO control, read-out: % Residual activity at 1 μM CDK5
Method: as §3

RnDYRK1A = RnDYRK1A (Rattus norvegicus, UniProt Q63470); experiment: ADP-Glo kinase assay; format: biochemical, Rattus norvegicus (Rn); conditions: for Selectivity index DYRK/Haspin: IC50 DYRK1A/IC50 Haspin; for pIC50: dose-response curve, each point in duplicate, read-out: Kinase inhibition (IC50) DYRK1A; for remaining activity: mean n = 2, % of maximum activity of DMSO control, read-out: % Residual activity at 1 μM DYRK1A
Method: as §3

U-2 OS cell line = experiment: Cell viability MTS assay, dose-response; format: cell-based; conditions: Homo sapiens, U2OS; 48 h, MTS assay in triplicate, doses up to 50 µM
Method: as §1, §2

RPE1 cell line = experiment: Cell viability MTS assay, dose-response; format: cell-based; conditions: Homo sapiens, RPE-1; 48 h, MTS assay in triplicate, doses up to 50 µM
Method: as §1, §2

MmCLK1 = MmCLK1 (Mus musculus, UniProt P22518); experiment: ADP-Glo kinase assay; format: biochemical, Mus musculus (Mm); conditions: for remaining activity at 1 µM: mean n = 2, % of maximum activity of DMSO control, read-out: % Residual activity at 1 μM CLK1; for Selectivity index CLK1/Haspin: IC50 CLK1/IC50 Haspin; for pIC50: dose-response curve, each point in duplicate, read-out: Kinase inhibition (IC50) CLK1
Method: as §3

HsPIM1, sequence (P11309 whole entry): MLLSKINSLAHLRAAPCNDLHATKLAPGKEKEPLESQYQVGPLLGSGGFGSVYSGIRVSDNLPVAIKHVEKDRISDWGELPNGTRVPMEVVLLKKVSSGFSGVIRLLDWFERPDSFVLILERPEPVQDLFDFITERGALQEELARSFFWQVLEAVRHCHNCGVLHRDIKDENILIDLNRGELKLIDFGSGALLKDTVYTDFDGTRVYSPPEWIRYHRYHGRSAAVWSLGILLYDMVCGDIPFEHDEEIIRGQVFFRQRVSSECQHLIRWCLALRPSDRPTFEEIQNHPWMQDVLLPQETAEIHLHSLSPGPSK
HsGSK3β, sequence (P49841 whole entry): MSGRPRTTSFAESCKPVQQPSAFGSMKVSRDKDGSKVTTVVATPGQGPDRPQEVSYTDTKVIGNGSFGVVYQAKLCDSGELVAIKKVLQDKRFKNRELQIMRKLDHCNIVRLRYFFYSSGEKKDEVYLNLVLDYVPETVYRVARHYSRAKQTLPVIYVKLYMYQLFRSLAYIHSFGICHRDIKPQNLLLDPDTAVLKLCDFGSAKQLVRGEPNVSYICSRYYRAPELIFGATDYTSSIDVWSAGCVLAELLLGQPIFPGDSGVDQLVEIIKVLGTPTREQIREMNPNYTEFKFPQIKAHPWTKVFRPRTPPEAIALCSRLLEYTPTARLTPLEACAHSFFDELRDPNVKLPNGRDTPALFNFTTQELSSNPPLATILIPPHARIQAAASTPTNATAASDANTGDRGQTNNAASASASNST
HsCdk9/Cyc E, sequence (P50750 whole entry): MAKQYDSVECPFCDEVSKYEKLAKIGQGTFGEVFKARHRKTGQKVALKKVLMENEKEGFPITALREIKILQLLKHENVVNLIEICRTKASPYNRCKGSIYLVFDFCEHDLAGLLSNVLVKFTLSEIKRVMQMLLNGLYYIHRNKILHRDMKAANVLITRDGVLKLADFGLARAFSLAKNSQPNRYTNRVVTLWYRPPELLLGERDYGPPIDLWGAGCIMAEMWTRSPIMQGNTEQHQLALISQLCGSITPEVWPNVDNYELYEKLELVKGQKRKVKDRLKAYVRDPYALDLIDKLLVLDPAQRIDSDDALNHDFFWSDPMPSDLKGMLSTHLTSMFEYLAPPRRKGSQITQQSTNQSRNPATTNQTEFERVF
HsCdk9/Cyc E, sequence (O60563 whole entry partner): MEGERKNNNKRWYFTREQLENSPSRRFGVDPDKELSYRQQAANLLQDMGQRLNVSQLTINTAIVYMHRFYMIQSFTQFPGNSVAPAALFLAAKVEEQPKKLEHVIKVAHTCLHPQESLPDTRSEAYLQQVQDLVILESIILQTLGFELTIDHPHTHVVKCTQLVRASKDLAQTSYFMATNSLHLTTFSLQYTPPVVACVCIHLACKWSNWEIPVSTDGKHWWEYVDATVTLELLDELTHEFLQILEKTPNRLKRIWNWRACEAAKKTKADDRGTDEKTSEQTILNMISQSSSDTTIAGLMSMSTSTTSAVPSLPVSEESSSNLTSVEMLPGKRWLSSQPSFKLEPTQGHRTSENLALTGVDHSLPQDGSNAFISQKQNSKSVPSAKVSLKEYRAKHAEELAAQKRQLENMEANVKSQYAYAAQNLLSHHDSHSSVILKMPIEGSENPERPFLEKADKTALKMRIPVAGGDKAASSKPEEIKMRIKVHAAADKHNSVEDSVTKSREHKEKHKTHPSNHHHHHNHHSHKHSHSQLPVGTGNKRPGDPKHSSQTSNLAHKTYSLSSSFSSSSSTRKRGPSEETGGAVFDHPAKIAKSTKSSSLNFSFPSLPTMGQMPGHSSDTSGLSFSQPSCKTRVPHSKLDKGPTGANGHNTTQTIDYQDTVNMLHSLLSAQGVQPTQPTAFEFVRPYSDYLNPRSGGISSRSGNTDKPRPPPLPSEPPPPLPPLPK
HsCdk5/p25, sequence (Q00535 whole entry): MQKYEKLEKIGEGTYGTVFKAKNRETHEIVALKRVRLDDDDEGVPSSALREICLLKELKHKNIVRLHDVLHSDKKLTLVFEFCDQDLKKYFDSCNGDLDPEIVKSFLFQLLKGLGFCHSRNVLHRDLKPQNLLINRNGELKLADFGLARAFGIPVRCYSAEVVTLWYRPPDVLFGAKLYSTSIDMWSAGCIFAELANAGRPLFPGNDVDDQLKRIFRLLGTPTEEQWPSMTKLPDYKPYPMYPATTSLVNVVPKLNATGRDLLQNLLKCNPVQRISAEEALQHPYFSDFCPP
HsCdk5/p25, sequence (Q15078 99-307 partner limits assumed): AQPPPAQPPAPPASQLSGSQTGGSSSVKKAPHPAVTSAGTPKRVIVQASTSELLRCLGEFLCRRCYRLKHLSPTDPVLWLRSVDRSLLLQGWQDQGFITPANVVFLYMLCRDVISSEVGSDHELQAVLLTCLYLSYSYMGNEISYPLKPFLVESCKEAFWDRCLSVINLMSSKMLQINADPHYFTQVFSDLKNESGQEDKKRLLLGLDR
MmCLK1, sequence (P22518 whole entry): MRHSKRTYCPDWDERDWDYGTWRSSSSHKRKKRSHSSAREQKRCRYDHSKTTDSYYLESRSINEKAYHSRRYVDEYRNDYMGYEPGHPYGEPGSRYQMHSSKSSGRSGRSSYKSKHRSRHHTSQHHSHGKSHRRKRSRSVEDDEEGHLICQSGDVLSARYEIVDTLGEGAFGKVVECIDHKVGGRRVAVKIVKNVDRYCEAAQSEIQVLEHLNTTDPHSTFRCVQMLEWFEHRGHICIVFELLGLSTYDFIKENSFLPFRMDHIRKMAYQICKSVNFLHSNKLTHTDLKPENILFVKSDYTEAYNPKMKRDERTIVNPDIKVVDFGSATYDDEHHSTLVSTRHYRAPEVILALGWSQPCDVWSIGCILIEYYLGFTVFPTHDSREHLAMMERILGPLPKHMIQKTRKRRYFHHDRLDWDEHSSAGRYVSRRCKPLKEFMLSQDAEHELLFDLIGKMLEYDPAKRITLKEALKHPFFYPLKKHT

- remaining activity at 1 µM (HsGSK3β): 86%
- remaining activity at 1 µM (HsPIM1): 32%
- remaining activity at 1 µM (HsHaspin): 6%
- pIC50 (HsHaspin): 8.15
- remaining activity at 1 µM (HsCdk9/Cyc E): 62%
- remaining activity at 1 µM (HsCdk2/Cyc A): 80%
- remaining activity at 1 µM (HsCdk5/p25): 78%
- melting point: > 250 °C
- Selectivity index DYRK/Haspin (RnDYRK1A): 10
- pIC50 (RnDYRK1A): 7.17
- remaining activity (RnDYRK1A): 18%
- remaining activity at 1 µM (MmCLK1): 13%
- Selectivity index CLK1/Haspin (MmCLK1): 7
- pIC50 (MmCLK1): 7.29
SMILES: COc1ccc2[nH]c(=O)c3[nH]c4ccccc4c3c2c1 [Compound 46, 2-Methoxy-5,7-dihydro-6H-indolo[2,3-c]quinolin-6-one]
- Effect on cell viability, primary screen [1]: little to no effect
- pEC50 (U-2 OS cell line): < 4.60
- pEC50 (RPE1 cell line): < 4.60

- remaining activity at 1 µM (HsGSK3β): 100%
- remaining activity at 1 µM (HsPIM1): 63%
- remaining activity at 1 µM (HsHaspin): 1%
- pIC50 (HsHaspin): 8.22
- remaining activity at 1 µM (HsCdk9/Cyc E): 49%
- remaining activity at 1 µM (HsCdk2/Cyc A): 84%
- remaining activity at 1 µM (HsCdk5/p25): 87%
- melting point: 235 to 238 °C
- Selectivity index DYRK/Haspin (RnDYRK1A): 3
- pIC50 (RnDYRK1A): 7.72
- remaining activity (RnDYRK1A): 12%
- remaining activity at 1 µM (MmCLK1): 4%
- Selectivity index CLK1/Haspin (MmCLK1): 3
- pIC50 (MmCLK1): 7.77
SMILES: O=c1[nH]c2ccc(O)cc2c2c1[nH]c1ccccc12 [Compound 48, 2-Hydroxy-5,7-dihydro-6H-indolo[2,3-c]quinolin-6-one]
- Reduction of cell viability compared to the DMSO control [1]: ≥ 75%
- pEC50 (U-2 OS cell line): 5.15
- pEC50 (RPE1 cell line): 5.14

- remaining activity at 1 µM (HsGSK3β): 39%
- remaining activity at 1 µM (HsPIM1): 41%
- remaining activity at 1 µM (HsHaspin): 2%
- pIC50 (HsHaspin): 9.00
- remaining activity at 1 µM (HsCdk9/Cyc E): 40%
- remaining activity at 1 µM (HsCdk2/Cyc A): 73%
- remaining activity at 1 µM (HsCdk5/p25): 77%
- melting point: 232 to 235 °C
- pIC50 (RnDYRK1A): 7.82
- remaining activity (RnDYRK1A): 7%
- remaining activity at 1 µM (MmCLK1): 5%
- pIC50 (MmCLK1): 7.89
SMILES: COc1ccc2[nH]c3c(=O)[nH]c4ccccc4c3c2c1 [Compound 49, 10-Methoxy-5,7-dihydro-6H-indolo[2,3-c]quinolin-6-one]
- Effect on cell viability, primary screen [1]: little to no effect
- pEC50 (U-2 OS cell line): < 4.60
- pEC50 (RPE1 cell line): < 4.60

More lines, now with the values behind:

SMILES: COc1ccc2c(c1)[nH]c(=O)c1[nH]c3ccc(OC)cc3c12 [Compound 50, 3,10-Dimethoxy-5,7-dihydro-6H-indolo[2,3-c]quinolin-6-one]
- Reduction of cell viability compared to the DMSO control [1]: ≥ 75%
- remaining activity at 1 µM (HsGSK3β): 44%
- remaining activity at 1 µM (HsPIM1): 19%
- remaining activity at 1 µM (HsHaspin): 3%
- pIC50 (HsHaspin): 8.15
- remaining activity at 1 µM (HsCdk9/Cyc E): 51%
- remaining activity at 1 µM (HsCdk2/Cyc A): 77%
- remaining activity at 1 µM (HsCdk5/p25): 81%
- melting point: 192 to 195 °C
- Selectivity index DYRK/Haspin (RnDYRK1A): 28
- pIC50 (RnDYRK1A): 6.71
- remaining activity (RnDYRK1A): 5%
- pEC50 (U-2 OS cell line): 5.37
- pEC50 (RPE1 cell line): 4.68
- remaining activity at 1 µM (MmCLK1): 10%
- Selectivity index CLK1/Haspin (MmCLK1): 13
- pIC50 (MmCLK1): 7.06

SMILES: COc1ccc2[nH]c(=O)c3[nH]c4ccc(OC)cc4c3c2c1 [Compound 51, 2,10-Dimethoxy-5,7-dihydro-6H-indolo[2,3-c]quinolin-6-one]
- Effect on cell viability, primary screen [1]: little to no effect
- remaining activity at 1 µM (HsGSK3β): 29%
- remaining activity at 1 µM (HsPIM1): 36%
- remaining activity at 1 µM (HsHaspin): 1%
- pIC50 (HsHaspin): 8.40
- remaining activity at 1 µM (HsCdk9/Cyc E): 33%
- remaining activity at 1 µM (HsCdk2/Cyc A): 62%
- remaining activity at 1 µM (HsCdk5/p25): 70%
- melting point: 190 to 192 °C
- Selectivity index DYRK/Haspin (RnDYRK1A): 10
- pIC50 (RnDYRK1A): 7.39
- remaining activity (RnDYRK1A): 14%
- pEC50 (U-2 OS cell line): 4.90
- pEC50 (RPE1 cell line): < 4.60
- remaining activity at 1 µM (MmCLK1): 5%
- Selectivity index CLK1/Haspin (MmCLK1): 3
- pIC50 (MmCLK1): 8.00

SMILES: COc1ccc2[nH]c3c(=O)[nH]c4cc(O)ccc4c3c2c1 [Compound 54, 3-Hydroxy-10-methoxy-5,7-dihydro-6H-indolo[2,3-c]quinolin-6-one]
- Effect on cell viability, primary screen [1]: little to no effect
- remaining activity at 1 µM (HsGSK3β): 48%
- remaining activity at 1 µM (HsPIM1): 9%
- remaining activity at 1 µM (HsHaspin): 0%
- pIC50 (HsHaspin): 8.40
- remaining activity at 1 µM (HsCdk9/Cyc E): 18%
- remaining activity at 1 µM (HsCdk2/Cyc A): 35%
- remaining activity at 1 µM (HsCdk5/p25): 59%
- melting point: 227 to 230 °C
- Selectivity index DYRK/Haspin (RnDYRK1A): 24
- pIC50 (RnDYRK1A): 7.01
- remaining activity (RnDYRK1A): 2%
- pEC50 (U-2 OS cell line): < 4.60
- pEC50 (RPE1 cell line): < 4.60
- remaining activity at 1 µM (MmCLK1): 11%
- Selectivity index CLK1/Haspin (MmCLK1): 21
- pIC50 (MmCLK1): 7.09

SMILES: COc1ccc2c(c1)c1c3cc(N(C)C)ccc3[nH]c(=O)c1n2C [Compound 64, 2-(Dimethylamino)-10-methoxy-7-methyl-5,7-dihydro-6H-indolo[2,3-c]quinolin-6-one]
- remaining activity at 1 µM (HsGSK3β): 81%
- remaining activity at 1 µM (HsPIM1): 82%
- remaining activity at 1 µM (HsHaspin): 39%
- remaining activity at 1 µM (HsCdk9/Cyc E): 59%
- remaining activity at 1 µM (HsCdk2/Cyc A): 100%
- remaining activity at 1 µM (HsCdk5/p25): 100%
- melting point: 231 to 234 °C
- remaining activity (RnDYRK1A): 19%
- remaining activity at 1 µM (MmCLK1): 11%
